Results on three compounds are retold here after patent US20180310564A1, “Mesoionic Compound” (Nippon Kayaku Kabushiki Kaisha, priority 2015, published 2018).

What all share (assay type): in vivo
For series [1], the system named is Cotton Aphid (Aphis gossypii). Nature of the series: Test (foliar spraying) for controlling cotton aphid. The conditions noted are these: 120 h, 5 days after treatment; for mortality at 200 ppm: foliar spraying on cucumber leaf. Here is the method:
A cucumber leaf cut to a diameter of 3.5 cm was placed on cotton wool moistened with water. Two adult cotton aphids were released there for offspring for 24 hours and the adult insects were then removed. […] After air-drying, the sample with cotton wool was placed in a plastic cup, which was covered with a lid and kept in a chamber at a constant temperature of 25° C. for rearing.

For series [2], the system named is Brown Planthopper (Nilaparvata lugens). The series can be described thus: Test (foliar dipping) for controlling brown planthopper. The settings on record: 120 h, rice seedlings dipped, 5 days after treatment; for mortality at 200 ppm: third instar larvae. As to the method:
[…] After air-drying, the rice seedlings held with urethane in a glass cylinder having an inner diameter of 4.5 cm and a length of 14 cm were set up in a plastic cup containing 40 mL of water. Larvae of brown planthoppers in the third instar larva were released there. The cylinder was covered with a lid of medicine paper and kept in a chamber at a constant temperature of 25° C. for rearing.

Series [3] has as its system Southern Yellow thrips (Thrips palmi). The series can be described thus: Test (foliar spraying) for controlling southern yellow thrips. The settings on record: 3 days after treatment; for Mortality of Thrips palmi (%): foliar spraying; for mortality at 200 ppm: 72 h, foliar spraying on cucumber leaf, first instar larvae. As to the method:
A cucumber leaf cut to a diameter of 1.5 cm was placed on cotton wool moistened with water. […] After air-drying, 5 larvae of southern yellow thrips in the first instar larva were released there. The sample with cotton wool was placed in a plastic cup, which was covered with a lid and kept in a chamber at a constant temperature of 25° C. for rearing.

Series [4] has as its system Brown Planthopper (Nilaparvata lugens). Nature of the series: Test (root dipping) for controlling brown planthopper. The conditions noted are these: 120 h, root dipping, 5 days after treatment. As to the method: Ten sampled rice seedlings held with urethane in a glass cylinder having an inner diameter of 4.5 cm and a length of 14 cm were set up in a plastic cup containing 40 mL of chemical solution diluted to a desired concentration. After 2 days, 10 larvae of brown planthoppers in the third instar larva were released in the glass cylinder. The glass cylinder was covered with a lid of medicine paper and kept in a chamber at a constant temperature of 25° C. for rearing.

In series [5] the test system is Rice Leaf Beetle (Oulema oryzae). Nature of the series: Test (root dipping) for controlling rice leaf beetle. The settings on record: 4 days after treatment; for mortality at 1.6 ppm: root dipping of rice seedlings, late instar larvae released after 2 days. Here is the method: Ten sampled rice seedlings held with urethane in a glass cylinder having an inner diameter of 4.5 cm and a length of 14 cm were set up in a plastic cup containing 40 mL of chemical solution diluted to a desired concentration. After 2 days, 4 larvae of rice leaf beetle in the late instar larva were released in the glass cylinder. The glass cylinder was covered with a lid of medicine paper and kept in a chamber at a constant temperature of 25° C. for rearing.

Series [6] deals with Rice Stem Borer (Chilo suppressalis). The series can be described thus: Test (pot test) for controlling rice stem borer. The settings on record: 14 days after treatment; for Browning stem ratio (%): 500 g/ha as wettable powder (Formulation Example 2) at rice roots, hatchlings released after 4 days; for Ratio to untreated (%): browning stem ratio relative to untreated, 500 g/ha. As to the method: The roots of five sampled rice seedlings were washed with water. The wettable powder prepared in accordance with Formulation Example 2 described above was wrapped in the roots to be planted in a Wagner pot of 1/10000 a. After 4 days from the treatment, a total of […] of rice stem borer were released per strain and reared in a plastic greenhouse with a room temperature set at 25° C. On 14 days after the treatment, the ratio of browning stem of seedlings for each strain and the ratio to untreated ones were calculated. Double system.

For series [7], the system named is Inedorooimushi (Oulema oryzae). Nature of the series: Test (pot test) for controlling inedorooimushi. The conditions noted are these: larvae released 20 days after treatment, 2 days after release; for mortality at 500 g/ha: 500 g/ha as wettable powder at rice roots. As to the method:
The roots of five sampled rice seedlings were washed with water. The wettable powder prepared in accordance with Formulation Example 2 described above was wrapped in the roots to be planted in a Wagner pot of 1/10000 a. After 20 days from the treatment, 3 larvae of inedorooimushi in the late instar larva were released per strain and reared in a plastic greenhouse with a room temperature set at 25° C. On 2 days after the releasing of the insects, the mortality of the insect was calculated.

Series [8] concerns Brown Planthopper (Nilaparvata lugens). Nature of the series: Residual effect test (field experiment) for brown planthopper. As to the method:
The roots of five sampled rice seedlings were washed with water. Subsequently, 25 mg of the wettable powder prepared in accordance with Formulation Example 2 described above was wrapped in the roots. Each strain was made from the five seedlings. In outdoor artificial paddy fields made from wooden frames having a size of 60 cm by 90 cm, 10 strains were planted, respectively. The artificial paddy field was shielded by an insect screen with a mesh size of 1 mm, so that invasion of harmful insects from the outside was prevented. Into the test system, 40 to 100 adult brown planthoppers were released at fixed intervals so as to cause damage to the rice. On 16 to 51 days after the treatment, the numbers of surviving insects and dead insects were measured to calculate the density index. The density index was obtained from the following expression.

The test system of series [9] is Brown Winged Green Stink Bug (Plautia stali). The series can be described thus: Test (greenhouse test) for controlling brown winged green stink bug. The conditions noted are these: 100 ppm sprayed on apple fruit; for Number of abnormal insects / Number of dead insects / Number of normal insects: 5 adults released 7 days after treatment, triple system, 4 days after release; for Total number of sheaths formed by stylet insertion: fruit stained with fuchsine after examination; for Proportion of abnormal insects and dead insects on 4 days after releasing insects (%): insects released 7 days after treatment. Here is the method:
Using a commercially available hand spray, a chemical solution diluted to a concentration of 100 ppm was sprayed onto an apple fruit (cultivar: Fuji). After air-drying, the apple fruit was placed in a plastic cup, which was allowed to stand still for a specified number of […] in a plastic greenhouse with a room temperature set at 25° C. and with the natural light shining thereon. On 7 days after the treatment, 5 adult brown winged green stink bugs (without distinction between male and female) were released onto the treated fruit. On 4 days after the release of insects, the numbers of death and abnormality were observed and recorded. Triple system. Also, the fruit after examination was immersed in an acidic 0.5% fuchsine solution for 30 minutes, and then washed with water to measure the total number of sapping scars.

In series [10] the test system is Diamondback Moth (Plutella xylostella). The series can be described thus: Test (foliar dipping) for controlling diamondback moth. The conditions noted are these: 72 h, foliar dipping of cabbage leaf, third instar larvae, 3 days after treatment. As to the method: A cabbage leaf cut to a diameter of 5.0 cm was dipped in the diluent of the test compounds diluted to 200 ppm in an amount of 20 mL and air-dried. After air-drying, the cabbage leaf was placed in a plastic cup, and 10 larvae of diamondback moths in the third instar larva were released there. The cup was covered with a lid and kept in a chamber at a constant temperature of 25° C. for rearing.

[11] abbreviates: After 16 days, 25 mg wettable powder (Formulation Example 2) at roots per strain, outdoor artificial paddy field.
Setting [12] is: After 23 days, 25 mg wettable powder at roots per strain, artificial paddy field.
Where [13] appears, read: After 30 days, 25 mg wettable powder at roots per strain, artificial paddy field.
The mark [14] stands for this setting: After 37 days, 25 mg wettable powder at roots per strain, artificial paddy field.
Setting [15] is: After 44 days, 25 mg wettable powder at roots per strain, artificial paddy field.
[16] abbreviates: After 51 days, 25 mg wettable powder at roots per strain, artificial paddy field.

For orientation: mortality means the percentage killed.

Counter-ions that a name gives are not always drawn.

With `O=c1c(-c2cccc(C(F)(F)F)c2)c([O-])[n+](Cc2cncnc2)c2ccccn12` [Triflumezopyrim, reference compound], the mortality at 0.2 ppm is 0% in [1] (0.20 ppm, foliar spraying); 70% in series [2] (0.2 ppm); 70% in series [4] (0.2 ppm). Also, in [1] (0.39 ppm, foliar spraying), the mortality at 0.39 ppm was determined as 60%. Besides, in [1] (0.78 ppm, foliar spraying), the mortality at 0.78 ppm came to 85%. The figures for the mortality at 0.1 ppm in series [2] (0.1 ppm) and in [4] (0.1 ppm) were 10% and 70%, respectively. Further, the results for the “Mortality of Thrips palmi (%)” value in [3] (12.5 ppm) and in series [3] (50 ppm) were 0% and 60%, respectively. Further, the mortality at 200 ppm in series [3] is 100%. The compound also showed a mortality at 0.05 ppm in series [4] (0.05 ppm) of 0%. The mortality at 0.4 ppm in [4] (0.4 ppm) turned out to be 70%. Also, the mortality at 0.8 ppm in [4] (0.8 ppm) was found to be 100%. Besides, in series [5], the mortality at 1.6 ppm came to 0%. The “Browning stem ratio (%)” value in [6] came out at 40%. For the same compound, the “Ratio to untreated (%)” value in [6] stood at 49%. For the same compound, the mortality at 125 g/ha in series [7] stood at 16.7%. Moreover, the mortality at 250 g/ha in series [7] was 50%. Moreover, in [7], the mortality at 500 g/ha came to 66.7%. The “Density index of Nilaparvata lugens” value amounted to 2.5 in series [8] (setting [11]); 5.4 in series [8] (setting [12]); 45.1 in [8] (setting [13]); 56.7 in [8] (setting [14]); 63.9 in [8] (setting [15]); 92.2 in series [8] (setting [16]). In addition, the “Number of abnormal insects” value in series [9] is reported as 5. The “Number of dead insects” value in series [9] is 4. For the same compound, in series [9], the “Number of normal insects” value came to 6. In addition, in series [9], the “Total number of sheaths formed by stylet insertion” value worked out at 10. Besides, the “Proportion of abnormal insects and dead insects on 4 days after releasing insects (%)” value in series [9] is listed as 60.0%.

`N#CCC[n+]1c([O-])c(-c2cccc(OC(F)(F)F)c2)c(=O)n2ccccc21` [Compound 57, 1-(2-cyanoethyl)-2-hydroxy-4-oxo-3-(3-trifluoromethoxyphenyl)-4H-pyrido[1,2-a]pyrimidinium inner salt]: the mortality at 200 ppm in series [1], in series [10], in series [2] and in series [3] was no less than 80% each time. Besides, the “Browning stem ratio (%)” value in series [6] stood at 0%. Moreover, in [6], the “Ratio to untreated (%)” value was 0%. The “Density index of Nilaparvata lugens” value in series [8] (setting [11]) is given as 0; in series [8] (setting [12]), 0; in [8] (setting [13]) it was 25.4; in series [8] (setting [14]), 50.4; in series [8] (setting [15]), 33.0; in series [8] (setting [16]), 80.7.

The compound `N#CCC[n+]1c([O-])c(-c2cccc(C(F)(F)F)c2)c(=O)n2ccccc21` [Compound 51, 1-(2-cyanoethyl)-2-hydroxy-4-oxo-3-(3-trifluoromethylphenyl)-4H-pyrido[1,2-a]pyrimidinium inner salt] returned a mortality at 0.1 ppm in [1] (0.1 ppm, foliar spraying) of 100%. Besides, the mortality at 0.8 ppm is 100% in series [1] (0.8 ppm, foliar spraying) and 100% in series [5] (96 h, 0.8 ppm, root dipping). In addition, the mortality at 200 ppm in [1], in [10], in series [2] and in [3] was no less than 80% in each case. Besides, the mortality at 1.6 ppm in series [5] amounted to 100%. In series [5] (96 h, 0.4 ppm, root dipping), this compound came in with a mortality at 0.4 ppm of 100%. In [6], the “Browning stem ratio (%)” value is 10%. In addition, in series [6], the “Ratio to untreated (%)” value was found to be 12%. In series [7], the mortality at 125 g/ha came out at 83.3%. The mortality at 250 g/ha in series [7] turned out to be 100%. The mortality at 500 g/ha in series [7] was found to be 100%. Moreover, the “Density index of Nilaparvata lugens” value in series [8] (setting [11]) was found to be 0; in series [8] (setting [12]), 2.6; in series [8] (setting [13]), 21.7; in series [8] (setting [14]), 43.1; in series [8] (setting [15]) it was 37.1; in series [8] (setting [16]), 76.2. In addition, the “Number of abnormal insects” value in series [9] amounted to 7. Also, the “Number of dead insects” value in series [9] is listed as 8. Also, the “Number of normal insects” value in [9] came to 0. Moreover, the “Total number of sheaths formed by stylet insertion” value in [9] is given as 1. Moreover, the “Proportion of abnormal insects and dead insects on 4 days after releasing insects (%)” value in [9] came out at 100%.
